Assay results: ChEMBL document CHEMBL1201862, “PubChem BioAssay data set” (2004)
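All cell lines were grown in 96-well plates and treated with compound for 48 hours. Abbreviation: GI50, concentration required for 50% inhibition of growth.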 The source made the active and inactive calls. Cut-off read from the data, not from the text of the source: active = GI50 up to about 1.1 µM and inactive = higher.

Experiments:
Assay in all cases: NCI anticancer screen, dose series, 48 h
DU-145 = system: DU-145
HCC 2998 = system: HCC 2998
HCT-116 = system: HCT-116
HOP-62 = system: HOP-62
K562 = system: K562
MCF7 = system: MCF7
MDA-MB-231 = system: MDA-MB-231
MOLT-4 = system: MOLT-4
Malme-3M = system: Malme-3M
NCI-H226 = system: NCI-H226
NCI-H522 = system: NCI-H522
PC-3 = system: PC-3
RPMI-8226 = system: RPMI-8226
SN12C = system: SN12C
SNB-19 = system: SNB-19
SNB-75 = system: SNB-75
SR = system: SR
TK-10 = system: TK-10
UACC-62 = system: UACC-62
OVCAR-3 = system: OVCAR-3

Measured: GI50

Cc1nc2[nH]ncn2c(=O)c1CCO
inactive: DU-145 > 10 µM | HCC 2998 > 10 µM | HCT-116 > 10 µM | HOP-62 > 10 µM | K562 > 10 µM | MCF7 > 10 µM | MDA-MB-231 > 10 µM | MOLT-4 > 10 µM | Malme-3M > 10 µM | NCI-H226 > 10 µM | NCI-H522 > 10 µM | PC-3 > 10 µM | RPMI-8226 > 10 µM | SN12C > 10 µM | SNB-19 > 10 µM | SNB-75 > 10 µM | SR > 10 µM | TK-10 > 10 µM | UACC-62 > 10 µM

CC(C)c1cccc(C(C)C)c1OS(=O)(=O)NC(=O)OC(C(F)(F)F)C(F)(F)F
inactive: DU-145 33.5 µM | HCC 2998 40.5 µM | HCT-116 31.5 µM | HOP-62 34.8 µM | K562 24.5 µM | MCF7 32 µM | MDA-MB-231 36.9 µM | MOLT-4 20 µM | Malme-3M > 100 µM | NCI-H226 35.8 µM | NCI-H522 39.5 µM | PC-3 36.7 µM | RPMI-8226 16.4 µM | SN12C 33.2 µM | SNB-19 28.2 µM | SR 36 µM | TK-10 > 100 µM

CCOC(=O)/C(=C/c1cn(C(C)=O)c2ccccc12)P(=O)(OC)OC
active: MCF7 < 0.01 µM
inactive: DU-145 22.2 µM | HCC 2998 > 10 µM | HCT-116 30.8 µM | HOP-62 63.4 µM | K562 25.6 µM | MDA-MB-231 43.8 µM | MOLT-4 25.4 µM | NCI-H522 30.5 µM | OVCAR-3 20.3 µM | PC-3 25.9 µM | RPMI-8226 19.9 µM | SN12C 31.6 µM | SNB-75 16 µM | SR 24.8 µM | TK-10 > 100 µM

CCCCCCCCCCCC1=NCCN1
inactive: DU-145 74.1 µM | HCC 2998 19.5 µM | HCT-116 56.6 µM | K562 39.6 µM | MCF7 38.9 µM | MDA-MB-231 23.8 µM | MOLT-4 17.9 µM | NCI-H226 > 100 µM | NCI-H522 26.5 µM | OVCAR-3 95.3 µM | PC-3 19.4 µM | SN12C 77.6 µM | SNB-19 > 100 µM | SNB-75 32 µM | SR 19.9 µM | TK-10 > 100 µM

CC(=O)/N=C1/N(/C=C2\C(=O)Oc3ccccc3C2=O)C(=O)/C(=C/c2ccc(NC(C)=O)cc2)N1C
inactive: DU-145 > 100 µM | HCC 2998 > 100 µM | HCT-116 > 100 µM | HOP-62 > 100 µM | K562 > 100 µM | MCF7 > 100 µM | MDA-MB-231 > 100 µM | MOLT-4 > 100 µM | Malme-3M > 100 µM | NCI-H226 > 100 µM | NCI-H522 47.9 µM | OVCAR-3 76 µM | PC-3 > 100 µM | RPMI-8226 > 100 µM | SN12C > 100 µM | SNB-75 84.9 µM | SR > 100 µM | UACC-62 > 100 µM

CCP(=O)(CC)C(Cl)(Cl)C(O)C(C)(C)C (stereo not drawn)
inactive: DU-145 > 100 µM | HCC 2998 > 100 µM | HCT-116 > 100 µM | HOP-62 > 100 µM | K562 > 100 µM | MCF7 > 100 µM | MDA-MB-231 > 100 µM | MOLT-4 > 100 µM | NCI-H226 > 100 µM | NCI-H522 > 100 µM | OVCAR-3 > 100 µM | PC-3 > 100 µM | RPMI-8226 > 100 µM | SN12C > 100 µM | SNB-19 > 100 µM | SNB-75 > 100 µM | SR > 100 µM | TK-10 > 100 µM

CCN1C(=O)c2cc(OC)c(OC)cc2C(=O)C12OC(=O)c1cc3c(cc12)OCO3 (stereo not drawn)
inactive: DU-145 31.3 µM | HCC 2998 54.7 µM | HCT-116 33.1 µM | HOP-62 49.4 µM | K562 > 100 µM | MCF7 78.9 µM | MDA-MB-231 41.4 µM | MOLT-4 > 100 µM | Malme-3M > 100 µM | NCI-H226 > 100 µM | NCI-H522 > 100 µM | OVCAR-3 63.5 µM | PC-3 > 100 µM | RPMI-8226 24.1 µM | SN12C 61.5 µM | SNB-19 39.5 µM | SNB-75 23 µM | SR 51.4 µM | TK-10 75.7 µM | UACC-62 80.5 µM

C=C1c2nc3ccccc3n2C=C(c2ccccc2)N1c1ccc([N+](=O)[O-])cc1
inactive: DU-145 6.92 µM | HCC 2998 3.49 µM | HCT-116 2.52 µM | HOP-62 4.92 µM | K562 7.35 µM | MCF7 3.61 µM | MDA-MB-231 2.39 µM | MOLT-4 29.2 µM | Malme-3M 3.01 µM | NCI-H226 5.5 µM | NCI-H522 3.67 µM | OVCAR-3 7.06 µM | PC-3 15.3 µM | RPMI-8226 8.81 µM | SN12C 7.89 µM | SNB-19 5.65 µM | SNB-75 3.15 µM | SR 4.95 µM | TK-10 4.32 µM | UACC-62 7.26 µM

Brc1cccc(Nc2ncnc3sc4c(c23)CCC(Nc2cccc(Br)c2)C4)c1 (stereo not drawn)
inactive: DU-145 > 100 µM | HCC 2998 > 100 µM | HCT-116 > 100 µM | HOP-62 > 100 µM | K562 > 100 µM | MCF7 83.8 µM | MDA-MB-231 > 100 µM | MOLT-4 > 100 µM | Malme-3M > 100 µM | NCI-H522 > 100 µM | OVCAR-3 > 100 µM | PC-3 > 100 µM | SN12C > 100 µM | SNB-19 > 100 µM | SNB-75 65.9 µM | TK-10 > 100 µM | UACC-62 > 100 µM

CCOc1c(/N=N/c2ccccc2Cl)c(-c2ccccc2)nn1C(=S)S
inactive: DU-145 > 100 µM | HCT-116 28 µM | HOP-62 > 100 µM | K562 19 µM | MCF7 37.8 µM | MDA-MB-231 15.7 µM | MOLT-4 23.9 µM | Malme-3M 37.2 µM | NCI-H226 20.8 µM | NCI-H522 25.2 µM | OVCAR-3 25 µM | PC-3 48.2 µM | SN12C 9.06 µM | SNB-19 > 100 µM | SNB-75 > 100 µM | SR 26.5 µM | TK-10 77.6 µM | UACC-62 31.2 µM

COc1cccc(/C=C/C(=O)N2CC(CCl)c3c2cc(N)c2ccccc32)c1 (stereo not drawn)
active: DU-145 0.00018 µM | HCC 2998 0.00242 µM | HCT-116 0.00109 µM | HOP-62 < 0.01 µM | K562 < 0.01 µM | MCF7 0.000238 µM | MDA-MB-231 0.0039 µM | MOLT-4 0.0194 µM | Malme-3M < 0.01 µM | NCI-H226 0.0137 µM | NCI-H522 0.00045 µM | OVCAR-3 < 0.01 µM | PC-3 0.00284 µM | RPMI-8226 0.0507 µM | SN12C 0.00357 µM | SNB-19 0.0059 µM | SNB-75 0.00237 µM | TK-10 0.00314 µM | UACC-62 0.00298 µM

Cc1ccc(S(=O)(=O)N2CCCSCC2)cc1
inactive: DU-145 > 100 µM | HCC 2998 > 100 µM | HCT-116 > 100 µM | K562 > 100 µM | MCF7 > 100 µM | MDA-MB-231 > 100 µM | MOLT-4 > 100 µM | NCI-H226 > 100 µM | NCI-H522 > 100 µM | PC-3 > 100 µM | SN12C > 100 µM | SNB-19 > 100 µM | SNB-75 61.7 µM | SR > 100 µM | TK-10 > 100 µM
